In patent publication US11357800B2, “Compositions for the treatment of neuropathic pain and sensitization of tumors to chemotherapies” (Henry Ford Health System, priority 2016, dated 2022):
Where two headings read alike, the source gives them in different places.

Tests used:
[1] = one randomized trial; cited from earlier work
[2] = system: human ovarian carcinoma OVCAR3; test: Tumor cell viability, MTT assay, OVCAR3; assay type: cell-based; details: read-out: IC50 cytotoxicity of oxaliplatin
Procedure: (§1) Tumor cell viability was measured using an MTT assay.

[3] = system: P-gp1, ABCC1, cleaved Caspase 3; details: tumor tissues
[4] = system: miR-15b, miR-26a, miR-125b; details: tumor tissues
[5] = system: DRG neurons; test: Axonal growth of DRG neurons in microfluidic device
Procedure: Primary rat DRG neurons were cultured in a microfluidic device that separates distal axons within the axonal compartment from their parent cell bodies within the cell body compartment as shown in FIG. 1 panel A. During 24 h culture, the neurons extended their axons to pass through a 450 nm long microgrooves, leading to only distal axons to grow into the axonal compartment (FIG. 1A). Oxaliplatin at various doses was applied into the axonal compartment (FIG. 1B).

[6] = system: human colon carcinoma HCT-116; test: Tumor cell viability, MTT assay, HCT-116; assay type: cell-based; details: read-out: IC50 cytotoxicity of oxaliplatin
Procedure: as §1

[7] = system: intraepidermal nerve fibers, sciatic nerve small fibers, DRG neurons; test: Histology and TEM of footpad, sciatic nerve and DRG of tumor bearing mice; assay type: in vivo, mouse
Text: Intraepidermal nerve fibers (IENFs) are sensory nerves that innervate dermis and epidermis. […] Calcitonin gene-related peptide (CGRP) DRG neurons are primary sensory neurons encoding heat and cold perception.

[8] = in vivo; cited from earlier work
[9] = double immunofluorescent analysis

CNCCC=C1c2ccccc2CCc2ccccc21 [nortriptyline]
therapy of CIPN symptoms [1]: ineffective

O=C1[O][Pt]2([NH][C@@H]3CCCC[C@H]3[NH]2)[O]C1=O [Oxaliplatin]
IC50 ([2]; OVCAR3, with CEC derived exosomes (3×10^2 exosomes)): 2.3 ± 0.1 µM
IC50 ([2]; OVCAR3, without CEC derived exosomes): 6.5 ± 1.1 µM
protein level of ABCC1 [3]: increased
protein level of P-gp1 [3]: increased
miR-15b level [4]: significantly reduced
miR-26a level [4]: significantly reduced
axonal growth inhibited ([5]; oxaliplatin 3.6 nM (reduced concentration, IRF of 2.5)): 27%
axonal growth suppressed ([5]; oxaliplatin 9.1 nM (regular dose)): 50%
IC50 ([5]; read-out: Half Maximal Inhibitory Concentration, IC50, growth of axons, oxaliplatin applied into the axonal compartment, 24 h): 9.1 nM
IC50 ([6]; HCT-116, with CEC derived exosomes (3×10^2 exosomes)): 6.9 ± 1 µM
IC50 ([6]; HCT-116, without CEC derived exosomes): 16.1 ± 2.1 µM
IEFN density assayed by the number of PGP9.5 positive fibers ([7]; dermal tissues of tumor bearing mice): significantly reduced
diameters of CGRP positive DRG neurons [7, 9]: selectively reduced
diameters of NF200 positive DRG neurons [7, 9]: reduced diameters of CGRP, but not NF200 positive neurons

Cc1c(C)c2c(c(C)c1O)CC[C@@](C)(CCC[C@H](C)CCC[C@H](C)CCCC(C)C)O2 [α-tocopherol]
antineuropathic effect on oxaliplatin-induced behavioral alterations [8]: about 50%
